The target of this experiment is T1, IRAK4 (Homo sapiens, UniProt Q9NWZ3).
T1 construct: Degradation of IRAK4 in OCI-LY10 was quantitatively measured using Meso Scale Discovery technology; endogenous in cells; host or cells: OCI-LY10
T1 sequence (Q9NWZ3 1-460): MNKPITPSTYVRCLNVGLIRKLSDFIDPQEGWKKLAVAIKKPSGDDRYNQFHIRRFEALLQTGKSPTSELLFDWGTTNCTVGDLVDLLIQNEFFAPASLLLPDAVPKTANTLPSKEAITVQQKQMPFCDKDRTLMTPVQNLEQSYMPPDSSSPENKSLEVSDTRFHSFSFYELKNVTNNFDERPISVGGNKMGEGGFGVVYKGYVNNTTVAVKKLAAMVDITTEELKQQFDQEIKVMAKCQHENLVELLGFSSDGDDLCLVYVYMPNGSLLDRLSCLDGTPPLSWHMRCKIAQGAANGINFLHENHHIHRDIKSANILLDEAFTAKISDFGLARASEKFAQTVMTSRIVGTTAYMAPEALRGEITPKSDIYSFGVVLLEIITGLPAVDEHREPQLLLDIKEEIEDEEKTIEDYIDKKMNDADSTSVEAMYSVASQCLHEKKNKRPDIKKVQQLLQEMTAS
The experiment is described as follows: IRAK4 MSD Degradation in OCI-LY10. Format: cell-based. To be noted: OCI-LY10 cells, MSD. In short, it runs like this:
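OCI-LY10 cells exposed to 8-point 1:3 compound series (top 1 to 10 μM) for 4 to 24 h at 37 °C, 5% CO2. Lysate IRAK4 quantified by MSD sandwich immunoassay. DC50 from three-parameter logistic fit, binned A (<0.01 μM) to D (>0.2 μM or not tested).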

The mark [1] stands for this setting: 4 hrs incubation, read-out: IRAK4 degradation in OCI-LY10 at 4 hrs: DC50.
Where [2] appears, read: 24 hrs incubation, read-out: IRAK4 degradation in OCI-LY10 at 24 hrs: DC50.

Read-outs that look alike come from different tables or passages of the source.

In the case of `Cn1c(=O)n(C2CCC(=O)NC2=O)c2cccc(C3COC4(C3)CN(C[C@H]3CC[C@H](n5cc6cc(NC(=O)c7cccc(C(F)(F)F)n7)ncc6n5)CC3)C4)c21` (stereo partly shown) [I-688], the DC50 (commonly the midpoint of the concentration-degradation curve) was over 200 nM under setting [1] and under 10 nM under setting [2].

In the case of `Cn1c(=O)n(C2CCC(=O)NC2=O)c2cccc(C3COC4(C3)CN(C[C@H]3CC[C@H](n5cc6cc(NC(=O)c7cccc(C(F)(F)F)n7)ccc6n5)CC3)C4)c21` (stereo partly shown) [I-689], the DC50 runs as follows: under setting [1], over 200 nM; under setting [2], under 10 nM.

Consider `Cn1c(=O)n(C2CCC(=O)NC2=O)c2cccc([C@@H]3CCN(C[C@]4(O)CC[C@@H](n5cc6cc(NC(=O)c7cccc(C(F)(F)F)n7)ccc6n5)CC4)C[C@H]3F)c21` (stereo partly shown) [I-690], for which the DC50 under setting [1] was over 200 nM and the DC50 under setting [2] is under 10 nM.

Take `Cn1c(=O)n(C2CCC(=O)NC2=O)c2cccc(C#CCOC3CCN(C[C@H]4CC[C@@H](c5ccc(C(F)F)c(NC(=O)c6cnn7ccc(N8C[C@H]9C[C@@H]8CO9)nc67)c5)CC4)CC3)c21` (stereo partly shown) [I-691]: the DC50 is over 200 nM under setting [1] and over 200 nM under setting [2].

For `Cc1cccc(C(=O)Nc2cc3cn([C@H]4CC[C@H](CN5CCN(c6cccc7c6n(C)c(=O)n7C6CCC(=O)NC6=O)CC5)CC4)nc3cn2)n1` (stereo partly shown) [I-692], the 50% degradation concentration (DC50) runs as follows: under setting [1], over 200 nM; under setting [2], under 10 nM.

For the compound `Cn1c(=O)n(C2CCC(=O)NC2=O)c2cccc(N3CCN(C[C@H]4CC[C@H](n5cc6cc(NC(=O)c7cccc(C(F)F)n7)ncc6n5)CC4)CC3)c21` (stereo partly shown) [I-693], the 50% degradation concentration (DC50) under setting [1] is over 200 nM and the DC50 under setting [2] was under 10 nM.

As to `Cn1c(=O)n(C2CCC(=O)NC2=O)c2ccc(F)c(N3CCN(C[C@H]4CC[C@H](n5cc6cc(NC(=O)c7cccc(C(F)(F)F)n7)ncc6n5)CC4)CC3)c21` (stereo partly shown) [I-694], the DC50 is over 200 nM under setting [1] and under 10 nM under setting [2].

In the case of `Cc1cccc(C(=O)Nc2cc3cn([C@H]4CC[C@H](CN5CCN(c6c(F)ccc7c6n(C)c(=O)n7C6CCC(=O)NC6=O)CC5)CC4)nc3cn2)n1` (stereo partly shown) [I-695], the DC50 reads like this: under setting [1], over 200 nM; under setting [2], under 10 nM.

Consider `Cn1c(=O)n(C2CCC(=O)NC2=O)c2cccc(OC3CN(C[C@H]4CC[C@H](n5cc6cc(NC(=O)c7cccc(C(F)(F)F)n7)c(C(C)(C)O)cc6n5)CC4)C3)c21` (stereo partly shown) [I-696], for which the DC50 is over 200 nM under setting [1] and under 10 nM under setting [2].

As to `CN(c1cccc2c1n(C)c(=O)n2C1CCC(=O)NC1=O)C1CN(C[C@H]2CC[C@H](n3cc(NC(=O)c4cnn5ccc(N6C[C@H]7C[C@@H]6CO7)nc45)c(C(F)F)n3)CC2)C1` (stereo partly shown) [I-697], the DC50 under setting [1] is over 200 nM and the DC50 under setting [2] was under 10 nM.

For the compound `CN(c1cccc2c1n(C)c(=O)n2C1CCC(=O)NC1=O)C1CN(C[C@H]2CC[C@H](n3cc4cc(NC(=O)c5cccc(C(F)(F)F)n5)ncc4n3)CC2)C1` (stereo partly shown) [I-698], the DC50 under setting [1] is over 200 nM and the DC50 under setting [2] was over 200 nM.

Consider `CN(c1cccc2c1n(C)c(=O)n2C1CCC(=O)NC1=O)C1CN(C[C@H]2CC[C@H](n3cc4cc(NC(=O)c5cccc(C(F)(F)F)n5)ccc4n3)CC2)C1` (stereo partly shown) [I-699], for which the DC50 runs as follows: under setting [1], over 200 nM; under setting [2], over 200 nM.

As to `CN(CC1CCN(c2cccc3c2n(C)c(=O)n3C2CCC(=O)NC2=O)CC1)c1ccc(-n2cc(NC(=O)c3cnn4cccnc34)c(C(F)F)n2)cc1` (stereo not shown) [I-700], the DC50 under setting [1] was over 200 nM.

As for `Cn1c(=O)n(C2CCC(=O)NC2=O)c2cccc(N3CCN(C4CCN(C[C@H]5CC[C@H](n6cc(NC(=O)c7cnn8ccc(N9C[C@H]%10C[C@@H]9CO%10)nc78)c(C(F)F)n6)CC5)CC4(F)F)CC3)c21` (stereo partly shown) [I-701], the DC50 by setting is: under setting [1], over 200 nM; under setting [2], under 10 nM.

Consider `Cn1c(=O)n(C2CCC(=O)NC2=O)c2cccc(CN3CC4(CCN(Cc5ccc(-n6cc(NC(=O)c7cnn8ccc(N9C[C@H]%10C[C@@H]9CO%10)nc78)c(C(F)F)n6)cc5)CC4)C3)c21` (stereo partly shown) [I-702], for which the half-maximal degradation concentration (DC50) under setting [1] was over 200 nM and the DC50 under setting [2] lay within 10 to 100 nM.

Regarding `Cn1c(=O)n(C2CCC(=O)NC2=O)c2cccc(C#CCN3CCN(C[C@H]4CC[C@H](n5cc(NC(=O)c6cnn7ccc(N8CCOC(F)(F)C8)nc67)c(C(F)F)n5)CC4)CC3)c21` (stereo partly shown) [I-703], the 50% degradation concentration (DC50) by setting is: under setting [1], over 200 nM; under setting [2], under 10 nM.

As to `COc1cc2nn([C@H]3CC[C@H](CN4CC=C(c5ccc6c(c5)n(C)c(=O)n6C5CCC(=O)NC5=O)C(F)(F)C4)CC3)cc2cc1NC(=O)c1cccc(C(F)(F)F)n1` (stereo partly shown) [I-704], the DC50 under setting [1] was over 200 nM and the DC50 under setting [2] was 10 to 100 nM.

`Cn1c(=O)n(C2CCC(=O)NC2=O)c2cccc(C3CCN(C[C@H]4CC[C@H](n5cc6cc(NC(=O)c7cccc(C(F)(F)F)n7)c(C#N)cc6n5)CC4)CC3(F)F)c21` (stereo partly shown) [I-705]: the DC50 was over 200 nM under setting [1] and under 10 nM under setting [2].

Regarding `Cn1c(=O)n(C2CCC(=O)NC2=O)c2cccc(C3=CCN(C[C@H]4CC[C@H](n5cc6cc(NC(=O)c7cccc(C(F)(F)F)n7)ccc6n5)CC4)CC3F)c21` (stereo partly shown) [I-706], the 50% degradation concentration (DC50) was over 200 nM under setting [1] and 10 to 100 nM under setting [2].

For `Cn1c(=O)n(C2CCC(=O)NC2=O)c2cccc([C@H]3CCN(C[C@H]4CC[C@H](n5cc6cc(NC(=O)c7cccc(C(F)(F)F)n7)ccc6n5)CC4)C[C@@H]3O)c21` (stereo partly shown) [I-707], the DC50 was over 200 nM under setting [1] and under 10 nM under setting [2].

On to `Cn1c(=O)n(C2CCC(=O)NC2=O)c2cccc(C3CCN(C[C@H]4CC[C@H](n5cc6cc(NC(=O)c7cccc(C(F)(F)F)n7)ccc6n5)CC4)CC3(F)F)c21` (stereo partly shown) [I-708], for which the DC50 was over 200 nM under setting [1] and 10 to 100 nM under setting [2].

For `O=C1CCN(c2cncc3c(C4CCN(C[C@H]5CC[C@H](n6cc7cc(NC(=O)c8cccc(C(F)(F)F)n8)ccc7n6)CC5)CC4(F)F)cccc23)C(=O)N1` (stereo partly shown) [I-709], the DC50 runs as follows: under setting [1], over 200 nM; under setting [2], 10 to 100 nM.

`COc1cc2nn([C@H]3CC[C@H](CN(C)C4CCN(c5cccc6c5n(C)c(=O)n6C5CCC(=O)NC5=O)CC4(F)F)CC3)cc2cc1NC(=O)c1cccc(C(F)(F)F)n1` (stereo partly shown) [I-710]: the DC50 under setting [1] was over 200 nM and the DC50 under setting [2] lay within 10 to 100 nM.

On to `Cn1c(=O)n(C2CCC(=O)NC2=O)c2cccc(C3CCN(C[C@]4(O)CC[C@@H](n5cc6cc(NC(=O)c7cccc(C(F)(F)F)n7)ccc6n5)CC4)CC3)c21` (stereo partly shown) [I-711], for which the DC50 is, setting by setting: under setting [1], over 200 nM; under setting [2], under 10 nM.

Take `Cn1c(=O)n(C2CCC(=O)NC2=O)c2ccc(N3CCN(CC4COC5(C4)CN(C[C@H]4CC[C@H](n6cc(NC(=O)c7cnn8ccc(N9C[C@H]%10C[C@@H]9CO%10)nc78)c(C(F)F)n6)CC4)C5)CC3)cc21` (stereo partly shown) [I-712]: the half-maximal degradation concentration (DC50) was over 200 nM under setting [1] and under 10 nM under setting [2].

As for `Cn1c(=O)n(C2CCC(=O)NC2=O)c2cccc(C3=CCN(C[C@H]4CC[C@H](n5cc6cc(NC(=O)c7cccc(C(F)(F)F)n7)c(C#N)cc6n5)CC4)CC3F)c21` (stereo partly shown) [I-713], the DC50 is, setting by setting: under setting [1], over 200 nM; under setting [2], under 10 nM.

With `Cn1c(=O)n(C2CCC(=O)NC2=O)c2cccc(C#CCO[C@H]3CCN(C[C@H]4CC[C@H](n5cc(NC(=O)c6cnn7ccc(N8CCS(=O)(=O)CC8)nc67)c(C(F)F)n5)CC4)C[C@@H]3F)c21` (stereo partly shown) [I-714], the DC50 is over 200 nM under setting [1] and under 10 nM under setting [2].

With `Cn1c(=O)n(C2CCC(=O)NC2=O)c2cccc(C#CCO[C@@H]3CCN(C[C@H]4CC[C@H](n5cc(NC(=O)c6cnn7ccc(N8CCS(=O)(=O)CC8)nc67)c(C(F)F)n5)CC4)C[C@H]3F)c21` (stereo partly shown) [I-715], the DC50 is over 200 nM under setting [1] and under 10 nM under setting [2].

The record behind these values is US12091411B2, “IRAK degraders and uses thereof” (Kymera Therapeutics, Inc., priority 2022, dated 2024).
